“And” between values parts separate entries of the source, which are not always exact repeats. Identical values can stand only once.
What follows are compounds tested against T1, farnesyl protein transferase (FPT), partially purified from rat brain (Rattus norvegicus, UniProt Q02293+Q04631) (assay: Inhibition of farnesyl protein transferase (transfer of [3H]farnesyl to Ras-CVLS)). Settings: Ras-CVLS farnesylation, partially purified rat brain FPT; read-out: FPT IC50.
T1 construct: were partially purified from rat brain by ammonium sulfate fractionation followed by Q-Sepharose
T1 sequence (Q02293 whole entry, one chain of several): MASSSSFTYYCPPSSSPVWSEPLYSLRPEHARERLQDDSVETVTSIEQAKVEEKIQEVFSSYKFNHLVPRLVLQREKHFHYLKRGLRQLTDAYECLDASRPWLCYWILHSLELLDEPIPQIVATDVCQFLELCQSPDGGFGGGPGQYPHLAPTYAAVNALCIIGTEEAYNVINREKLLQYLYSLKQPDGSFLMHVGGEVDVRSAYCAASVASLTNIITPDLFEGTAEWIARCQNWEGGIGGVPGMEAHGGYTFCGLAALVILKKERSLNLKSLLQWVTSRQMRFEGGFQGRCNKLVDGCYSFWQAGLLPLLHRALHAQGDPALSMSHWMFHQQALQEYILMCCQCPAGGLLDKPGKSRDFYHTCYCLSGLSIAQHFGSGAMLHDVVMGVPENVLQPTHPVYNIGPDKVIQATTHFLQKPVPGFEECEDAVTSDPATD
Type: biochemical
Method in brief: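 Partially purified farnesyl protein transferase with His6-tagged val12-Ha-Ras-CVLS substrate and [3H]farnesyl pyrophosphate, 30 min at room temperature. Stopped with SDS/TCA, precipitated Ras collected on GF/C filters; percent inhibition relative to DMSO vehicle control.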
With `O=C(Cc1cc[n+]([O-])cc1)N1CCC(=C2c3ccc(Cl)cc3CCc3cc(I)cnc32)CC1` [Example 401] the IC50 was 63 nM and 80 nM.
`O=C(Cc1ccncc1)N1CCC(=C2c3ccc(Br)cc3CCc3cccnc32)CC1` [Example 181] was tested, and the IC50 was 230 nM.
Compound `CN1CCC(CC(=O)N2CCC(C3c4ccc(Cl)cc4CCc4cc(Br)cnc43)CC2)CC1` (stereo not drawn) [Example 400-J] has an IC50 of 140 nM.
`O=C(Cc1ccncc1)N1CCC(C2c3ccc(Cl)cc3CCc3cc(Br)cnc32)CC1` (stereo not drawn) [Example 400-E] showed an IC50 of 40 nM.
`O=C(c1ccc(O)c(O)c1)N1CCC(=C2c3ccc(Cl)cc3CCc3cccnc32)CC1` [Example 8] gave an IC50 of 2300 nM.
`CC(C)(C)c1cnc2c(c1)CCc1cc(Cl)ccc1C2=C1CCN(C(=O)Cc2cccnc2)CC1` [Example 304] showed an IC50 of 2630 nM.
Compound `O=C(Cc1cc[n+]([O-])cc1)N1CCC(C2c3ccc(Cl)cc3CCc3cc(Br)cnc32)CC1` (stereo not drawn) [Example 400-F] has an IC50 of 36 nM.
With `CC1(C2CCN(C(=O)Cc3cc[n+]([O-])cc3)CC2)c2ccc(Cl)cc2CCc2cc(Br)cnc21` (stereo not drawn) [Example 410-B] the IC50 was 84 nM.
`O=C(Nc1cccnc1)N1CCN(C2c3ccc(Cl)cc3CCc3cc(Br)cnc32)CC1` (stereo not drawn) [Example 354] showed an IC50 of 210 nM.
Work on `O=C(Cc1ccncc1)N1CCC(=C2c3ccc(Cl)cc3CCc3cc(Cl)cnc32)CC1` [Example 180] yielded an IC50 of 40 nM.
`CC1(C2CCN(C(=O)Cc3ccncc3)CC2)c2ccc(Cl)cc2CCc2cc(Br)cnc21` (stereo not drawn) [Example 410-A] gave an IC50 of 86 nM.

Same assay, conditions: enzyme inhibition; read-out: FPT IC50
Compound `O=C(Cc1ccncc1)N1CCC(C2c3ccc(Cl)cc3C(=NO)Cc3cccnc32)CC1` (stereo not drawn) [Example 419] has an IC50 of less than 120 nM.
Work on `O=C(Cc1cc[n+]([O-])cc1)N1CCC(=C2c3ccc(Cl)cc3C=Cc3cc(Br)cnc32)CC1` [Example 417-B] yielded an IC50 of 140 nM.
With `O=C(Cc1cc[n+]([O-])cc1)N1CCC(=C2c3ccc(Cl)cc3CCc3cc(I)cnc32)CC1` [Example 401] the IC50 was 63 nM and 80 nM.
`CN1CCC(CC(=O)N2CCC(C3c4ccc(Cl)cc4CCc4cc(Br)cnc43)CC2)CC1` (stereo not drawn) [Example 400-J] showed an IC50 of 140 nM.
For `O=C(Cc1cc[n+]([O-])cc1)N1CCC(=C2c3ccc(Cl)cc3CCc3cc(Cl)cnc32)CC1` [Example 411-W], the IC50 was 160 nM and 170 nM.
`O=C(Cc1ccncc1)N1CCC(C2c3ccc(Cl)cc3CCc3cc(Br)cnc32)CC1` (stereo not drawn) [Example 400-E] gave an IC50 of 40 nM.
For `O=C(c1ccc(O)c(O)c1)N1CCC(=C2c3ccc(Cl)cc3CCc3cccnc32)CC1` [Example 8], the IC50 was 2300 nM.
With `O=C(Cc1cc[n+]([O-])cc1)N1CCC(C2c3ccc(Cl)cc3CCc3cc(Br)cnc32)CC1` (stereo not drawn) [Example 400-F] the IC50 was 36 nM.
`CC1(C2CCN(C(=O)Cc3cc[n+]([O-])cc3)CC2)c2ccc(Cl)cc2CCc2cc(Br)cnc21` (stereo not drawn) [Example 410-B] showed an IC50 of 84 nM.
For `CC1(C2CCN(C(=O)Cc3ccncc3)CC2)c2ccc(Cl)cc2CCc2cc(Br)cnc21` (stereo not drawn) [Example 410-A], the IC50 was 86 nM.

The compounds below were run on T24-BAG4 human bladder carcinoma cells expressing an activated H-ras gene (assay: Cell Mat Assay: tumor cell colony inhibition (tIC50)). Settings: Homo sapiens, inhibition of tumor cell growth.
Type: cell-based
Method in brief: (§1)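 Serial compound dilutions added 24 h after planting T24-BAG4 cells onto a mat of normal cells, then 14 d colony growth; monolayers glutaraldehyde-fixed and tumor cells X-Gal stained. tIC50 and mIC50 from microscope counts of colonies, cells per colony and mat cell density.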
Work on `O=C(Cc1cc[n+]([O-])cc1)N1CCC(=C2c3ccc(Cl)cc3C=Cc3cc(Br)cnc32)CC1` [Example 417-B] yielded an IC50 of less than 1.6 µM.
`O=C(Cc1cc[n+]([O-])cc1)N1CCC(=C2c3ccc(Cl)cc3CCc3cc(I)cnc32)CC1` [Example 401] showed an IC50 of less than 1.6 µM.
`O=C(Cc1ccncc1)N1CCC(C2c3ccc(Cl)cc3CCc3cc(Br)cnc32)CC1` (stereo not drawn) [Example 400-E] showed an IC50 of less than 1.6 µM.
For `O=C(Cc1cc[n+]([O-])cc1)N1CCC(C2c3ccc(Cl)cc3CCc3cc(Br)cnc32)CC1` (stereo not drawn) [Example 400-F], the IC50 was less than 1.6 µM.
Work on `O=C(CN1C(=O)c2ccccc2C1=O)N1CCN(C2c3ccc(Cl)cc3CCc3cccnc32)CC1` (stereo not drawn) [Example 76] yielded an IC50 greater than 50 µM.
Work on `O=C(Nc1cccnc1)N1CCN(C2c3ccc(Cl)cc3CCc3cc(Br)cnc32)CC1` (stereo not drawn) [Example 354] yielded an IC50 of 6.25 µM.
In the case of `O=C(Cc1ccncc1)N1CCC(=C2c3ccc(Cl)cc3CCc3cc(Cl)cnc32)CC1` [Example 180], the IC50 is reported as 12.5 µM.

Same assay, conditions: inhibition of tumor cell growth
Work on `O=C(Cc1ccncc1)N1CCC(=C2c3ccc(Cl)cc3CCc3cc(Cl)cnc32)CC1` [Example 180] yielded an IC50 of 18 µM.

What follows are compounds tested against T2, geranylgeranyl protein transferase (GGPT) I (Rattus norvegicus, UniProt P53610+Q04631) (assay: Inhibition of geranylgeranyl protein transferase I (Ras-CVLL as acceptor)). Settings: (32) μM.
T2 construct: were partially purified from rat brain by ammonium sulfate fractionation followed by Q-Sepharose
T2 sequence (P53610 whole entry, one chain of several): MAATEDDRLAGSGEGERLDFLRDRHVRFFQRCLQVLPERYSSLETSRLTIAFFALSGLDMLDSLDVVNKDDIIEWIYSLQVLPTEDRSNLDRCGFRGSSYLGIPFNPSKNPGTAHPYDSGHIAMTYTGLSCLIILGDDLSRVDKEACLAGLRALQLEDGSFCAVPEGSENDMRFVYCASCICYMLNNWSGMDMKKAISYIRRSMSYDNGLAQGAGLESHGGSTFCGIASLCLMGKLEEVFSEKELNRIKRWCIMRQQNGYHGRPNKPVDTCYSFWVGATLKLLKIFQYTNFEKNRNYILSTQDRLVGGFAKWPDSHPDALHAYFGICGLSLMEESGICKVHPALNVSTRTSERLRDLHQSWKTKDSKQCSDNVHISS
Type: biochemical
Excerpt: 1. In vitro enzyme assays: Inhibition of farnesyl protein transferase and geranylgeranyl protein transferase.
Both farnesyl protein transferase (FPT) and geranylgeranyl protein transferase (GGPT) I were partially purified from rat brain by ammonium sulfate fractionation followed by Q-Sepharose (Pharmacia, Inc.) anion exchange chromatography essentially as described by Yokoyama et al (Yokoyama, K., et al., (1991), A protein geranylgeranyltransferase from bovine brain: Implications for protein prenylation specificity, Proc. Natl. Acad. Sci USA 88: 5302-5306, the disclosure of which is incorporated herein by reference thereto). Human farnesyl protein transferase was also expressed in E. coli, using cDNA clones encoding both the α and β subunits. The methods used were similar to those published (Omer, C. et al., (1993), Characterization of recombinant human farnesyl protein transferase: Cloning, expression, farnesyl diphosphate binding, and functional homology with yeast prenyl-protein transferases, Biochemistry 32:5167-5176). Human farnesyl protein transferase was partially-purified from the soluble protein fraction of E. coli as described above. […] Two forms of val^12-Ha-Ras protein were prepared as substrates for these enzymes, differing in their carboxy terminal sequence. One form terminated in cysteine-valine-leucine-serine (Ras-CVLS) the other in cystein-valine-leucine-leucine (Ras-CVLL). Ras-CVLS is a substrate for the farnesyl protein transferase while Ras-CVLL is a substrate for geranylgeranyl protein transferase I. The cDNAs encoding these proteins were constructed so that the proteins contain an amino-terminal extension of 6 histidine residues. Both proteins were expressed in Escherichia coli and purified using metal chelate affinity chromatography. The radiolabelled isoprenyl pyrophosphate substrates, [^3H]farnesyl pyrophosphate and [3H]geranylgeranyl pyrophosphate, were purchased from DuPont/New England Nuclear.
The geranylgeranyl protein transferase I assay was essentially identical to the farnesyl protein transferase assay described above, with two exceptions: [^3H]geranylgeranylpyrophosphate replaced farnesyl pyrophosphate as the isoprenoid donor and Ras-CVLL was the protein acceptor.
With `O=C(Cc1cc[n+]([O-])cc1)N1CCC(=C2c3ccc(Cl)cc3C=Cc3cc(Br)cnc32)CC1` [Example 417-B] the “GGPT inhibition at the concentration in parentheses” value (shortened to “GGPT inhibition”) was 15 (32).

Same assay, conditions: (34) μM
In the case of `O=C(Cc1cc[n+]([O-])cc1)N1CCC(=C2c3ccc(Cl)cc3CCc3cc(I)cnc32)CC1` [Example 401], the “GGPT inhibition” value is reported as 7 (34).

Same assay, conditions: (35) μM
In the case of `CC1(C2CCN(C(=O)Cc3cc[n+]([O-])cc3)CC2)c2ccc(Cl)cc2CCc2cc(Br)cnc21` (stereo not drawn) [Example 410-B], the “GGPT inhibition” value is reported as 21 (35).
`CC1(C2CCN(C(=O)Cc3ccncc3)CC2)c2ccc(Cl)cc2CCc2cc(Br)cnc21` (stereo not drawn) [Example 410-A] was tested, and the “GGPT inhibition” value was 47 (35).

Same assay, conditions: (36) μM
For `CN1CCC(CC(=O)N2CCC(C3c4ccc(Cl)cc4CCc4cc(Br)cnc43)CC2)CC1` (stereo not drawn) [Example 400-J], the “GGPT inhibition” value was 6 (36).
With `O=C(Cc1cc[n+]([O-])cc1)N1CCC(C2c3ccc(Cl)cc3CCc3cc(Br)cnc32)CC1` (stereo not drawn) [Example 400-F] the “GGPT inhibition” value was 0 (36).

Same assay, conditions: (38) μM
`O=C(Cc1ccncc1)N1CCC(C2c3ccc(Cl)cc3CCc3cc(Br)cnc32)CC1` (stereo not drawn) [Example 400-E] was tested, and the “GGPT inhibition” value was 30 (38).

Same assay, conditions: (41) μM
With `O=C(Cc1ccncc1)N1CCC(C2c3ccc(Cl)cc3C(=NO)Cc3cccnc32)CC1` (stereo not drawn) [Example 419] the “GGPT inhibition” value was 0 (41).

Same assay, conditions: (42) μM
For `O=C(Cc1cc[n+]([O-])cc1)N1CCC(=C2c3ccc(Cl)cc3CCc3cc(Cl)cnc32)CC1` [Example 411-W], the “GGPT inhibition” value was 3 (42).

Same assay, conditions: enzyme inhibition
With `O=C(Cc1cc[n+]([O-])cc1)N1CCC(=C2c3ccc(Cl)cc3CCc3cc(I)cnc32)CC1` [Example 401] the IC50 was 1000 µM.
`O=C(Cc1ccncc1)N1CCC(=C2c3ccc(Br)cc3CCc3cccnc32)CC1` [Example 181] showed an IC50 greater than 42 µM.
In the case of `CN1CCC(CC(=O)N2CCC(C3c4ccc(Cl)cc4CCc4cc(Br)cnc43)CC2)CC1` (stereo not drawn) [Example 400-J], the IC50 is reported as 1000 µM.
With `O=C(c1ccc(O)c(O)c1)N1CCC(=C2c3ccc(Cl)cc3CCc3cccnc32)CC1` [Example 8] the IC50 was 42 µM.
Compound `CC(C)(C)c1cnc2c(c1)CCc1cc(Cl)ccc1C2=C1CCN(C(=O)Cc2cccnc2)CC1` [Example 304] has an IC50 greater than 40 µM.
`O=C(CN1C(=O)c2ccccc2C1=O)N1CCN(C2c3ccc(Cl)cc3CCc3cccnc32)CC1` (stereo not drawn) [Example 76] was tested, and the IC50 was greater than 50 µM.
Compound `CC1(C2CCN(C(=O)Cc3cc[n+]([O-])cc3)CC2)c2ccc(Cl)cc2CCc2cc(Br)cnc21` (stereo not drawn) [Example 410-B] has an IC50 of 1000 µM.
`O=C(Nc1cccnc1)N1CCN(C2c3ccc(Cl)cc3CCc3cc(Br)cnc32)CC1` (stereo not drawn) [Example 354] was tested, and the IC50 was 1000 µM.
Work on `O=C(Cc1ccncc1)N1CCC(=C2c3ccc(Cl)cc3CCc3cc(Cl)cnc32)CC1` [Example 180] yielded an IC50 greater than 42 µM.
In the case of `CC1(C2CCN(C(=O)Cc3ccncc3)CC2)c2ccc(Cl)cc2CCc2cc(Br)cnc21` (stereo not drawn) [Example 410-A], the IC50 is reported as roughly 40 µM.

These compounds were tested on Normal human HEPM fibroblasts (assay: Cell Mat Assay: density of mat cells (mIC50)). Settings: not given.
Type: cell-based
Method in brief: as §1
`CC(C)(C)c1cnc2c(c1)CCc1cc(Cl)ccc1C2=C1CCN(C(=O)Cc2cccnc2)CC1` [Example 304] showed an IC50 greater than 50 µM.
`O=C(Cc1ccncc1)N1CCC(=C2c3ccc(Cl)cc3CCc3cc(Cl)cnc32)CC1` [Example 180] showed an IC50 greater than 50 µM.

Same assay, conditions: Homo sapiens, Fibroblast
`O=C(Cc1cc[n+]([O-])cc1)N1CCC(=C2c3ccc(Cl)cc3C=Cc3cc(Br)cnc32)CC1` [Example 417-B] showed an IC50 greater than 25 µM.
For `O=C(Cc1cc[n+]([O-])cc1)N1CCC(=C2c3ccc(Cl)cc3CCc3cc(I)cnc32)CC1` [Example 401], the IC50 was greater than 25 µM.
Compound `O=C(Cc1ccncc1)N1CCC(C2c3ccc(Cl)cc3CCc3cc(Br)cnc32)CC1` (stereo not drawn) [Example 400-E] has an IC50 of 18 µM.
For `O=C(Cc1cc[n+]([O-])cc1)N1CCC(C2c3ccc(Cl)cc3CCc3cc(Br)cnc32)CC1` (stereo not drawn) [Example 400-F], the IC50 was greater than 25 µM.
With `O=C(CN1C(=O)c2ccccc2C1=O)N1CCN(C2c3ccc(Cl)cc3CCc3cccnc32)CC1` (stereo not drawn) [Example 76] the IC50 was greater than 50 µM.
`O=C(Nc1cccnc1)N1CCN(C2c3ccc(Cl)cc3CCc3cc(Br)cnc32)CC1` (stereo not drawn) [Example 354] showed an IC50 of no less than 25 µM.
`O=C(Cc1ccncc1)N1CCC(=C2c3ccc(Cl)cc3CCc3cc(Cl)cnc32)CC1` [Example 180] showed an IC50 of 50 µM.

Reference: patent US20030055065A1, “Tricyclic amide and urea compounds useful for inhibition of G-protein function and for treatment of proliferative diseases” (priority 1993, published 2003)
